± gives the expanded uncertainty stated by the source.
Key:
[1] = 298.15 K; 101.33 kPa; Liquid; Vibrating tube method
[2] = refractive index (Na D-line) (dimensionless); conditions: 298.15 K; 101.33 kPa; Liquid; Standard Abbe refractometry
[3] = xn = mol fraction of the nth substance listed; conditions: 298.15 K, 101 kPa, Liquid, Vibrating tube method
[4] = excess molar enthalpy (molar enthalpy of mixing); xn = mol fraction of the nth substance listed; conditions: 298.15 K, 101 kPa, Liquid, Calvet calorimetry

CCCCCCCCCCCC [dodecane]
Conditions	mass density [kg/m3]	refractive index
[1]	745.1 ± 0.58	–
[2]	–	1.4192 ± 0.0006

CCCCCCCCCCCC [dodecane] + CCOC(C)=O
Conditions	excess molar enthalpy [kcal/mol]	mass density [kg/m3]
[3], x1 = 0.097	–	860.06 ± 0.29
[3], x1 = 0.146	–	846.23 ± 0.3
[3], x1 = 0.1976	–	833.46 ± 0.31
[3], x1 = 0.2508	–	821.88 ± 0.32
[3], x1 = 0.2979	–	812.79 ± 0.33
[3], x1 = 0.3903	–	797.68 ± 0.36
[3], x1 = 0.4943	–	783.92 ± 0.39
[3], x1 = 0.6	–	772.56 ± 0.43
[3], x1 = 0.6909	–	764.45 ± 0.46
[3], x1 = 0.7392	–	760.65 ± 0.48
[3], x1 = 0.7931	–	756.85 ± 0.5
[3], x1 = 0.8213	–	754.91 ± 0.51
[3], x1 = 0.8798	–	751.38 ± 0.53
[3], x1 = 0.9374	–	748.08 ± 0.55
[4], x1 = 0.0232	0.0564 ± 0.00143	–
[4], x1 = 0.0541	0.12 ± 0.00263	–
[4], x1 = 0.0898	0.184 ± 0.00406	–
[4], x1 = 0.1316	0.246 ± 0.00526	–
[4], x1 = 0.18	0.306 ± 0.00645	–
[4], x1 = 0.2292	0.353 ± 0.00765	–
[4], x1 = 0.279	0.389 ± 0.00837	–
[4], x1 = 0.3296	0.416 ± 0.00884	–
[4], x1 = 0.3789	0.434 ± 0.00932	–
[4], x1 = 0.4062	0.442 ± 0.00932	–
[4], x1 = 0.4261	0.444 ± 0.00956	–
[4], x1 = 0.4718	0.448 ± 0.00956	–
[4], x1 = 0.4736	0.446 ± 0.00956	–
[4], x1 = 0.5534	0.43 ± 0.00908	–
[4], x1 = 0.647	0.385 ± 0.00813	–
[4], x1 = 0.7424	0.313 ± 0.00669	–
[4], x1 = 0.8396	0.214 ± 0.00454	–
[4], x1 = 0.9339	0.101 ± 0.00215	–

CCOC(C)=O [ethyl acetate]
Conditions	mass density [kg/m3]	refractive index
[1]	894.34 ± 0.23	–
[2]	–	1.37 ± 0.0005

CCCCC(=O)OCC [ethyl pentanoate]
Conditions	mass density [kg/m3]	refractive index
[1]	869.28 ± 0.23	–
[2]	–	1.3981 ± 0.0005

CCCCC(=O)OCC [ethyl pentanoate] + CCCCCCCCCCCC
Conditions	excess molar enthalpy [kcal/mol]	mass density [kg/m3]
[3], x2 = 0.0505	–	858.92 ± 0.26
[3], x2 = 0.1024	–	849.09 ± 0.28
[3], x2 = 0.1522	–	840.25 ± 0.29
[3], x2 = 0.1998	–	832.32 ± 0.3
[3], x2 = 0.2496	–	824.53 ± 0.32
[3], x2 = 0.3013	–	816.7 ± 0.33
[3], x2 = 0.4039	–	802.81 ± 0.37
[3], x2 = 0.502	–	790.76 ± 0.4
[3], x2 = 0.6026	–	779.67 ± 0.43
[3], x2 = 0.6547	–	774.3 ± 0.45
[3], x2 = 0.6992	–	769.94 ± 0.47
[3], x2 = 0.7485	–	765.35 ± 0.48
[3], x2 = 0.7982	–	760.93 ± 0.5
[3], x2 = 0.847	–	756.88 ± 0.52
[3], x2 = 0.8918	–	753.23 ± 0.54
[3], x2 = 0.9497	–	748.76 ± 0.56
[4], x2 = 0.043	0.0459 ± 0.0012	–
[4], x2 = 0.0928	0.0887 ± 0.00191	–
[4], x2 = 0.1433	0.129 ± 0.00287	–
[4], x2 = 0.1957	0.163 ± 0.00359	–
[4], x2 = 0.2488	0.192 ± 0.00406	–
[4], x2 = 0.3005	0.214 ± 0.00454	–
[4], x2 = 0.3181	0.219 ± 0.00478	–
[4], x2 = 0.3511	0.23 ± 0.00502	–
[4], x2 = 0.3548	0.232 ± 0.00502	–
[4], x2 = 0.3978	0.242 ± 0.00526	–
[4], x2 = 0.446	0.25 ± 0.00526	–
[4], x2 = 0.5012	0.252 ± 0.0055	–
[4], x2 = 0.5648	0.247 ± 0.00526	–
[4], x2 = 0.6392	0.23 ± 0.00502	–
[4], x2 = 0.7228	0.197 ± 0.0043	–
[4], x2 = 0.8127	0.148 ± 0.00311	–
[4], x2 = 0.9036	0.0896 ± 0.00191	–

CCCCC(=O)OCC [ethyl pentanoate] + CCOC(C)=O
Conditions	excess molar enthalpy [kcal/mol]	mass density [kg/m3]
[3], x1 = 0.0482	–	892.36 ± 0.23
[3], x1 = 0.0954	–	890.53 ± 0.23
[3], x1 = 0.148	–	888.63 ± 0.23
[3], x1 = 0.1941	–	887.05 ± 0.23
[3], x1 = 0.3047	–	883.64 ± 0.24
[3], x1 = 0.4	–	881.02 ± 0.24
[3], x1 = 0.4921	–	878.73 ± 0.24
[3], x1 = 0.5717	–	876.92 ± 0.24
[3], x1 = 0.6556	–	875.16 ± 0.24
[3], x1 = 0.6946	–	874.41 ± 0.24
[3], x1 = 0.7526	–	873.29 ± 0.24
[3], x1 = 0.7924	–	872.6 ± 0.2
[3], x1 = 0.8362	–	871.84 ± 0.24
[3], x1 = 0.8651	–	871.36 ± 0.24
[3], x1 = 0.9263	–	870.36 ± 0.24
[3], x1 = 0.9377	–	870.21 ± 0.24
[4], x1 = 0.0627	0.0117 ± 0.000478	–
[4], x1 = 0.1347	0.0213 ± 0.000478	–
[4], x1 = 0.2071	0.0282 ± 0.000717	–
[4], x1 = 0.2799	0.0332 ± 0.000717	–
[4], x1 = 0.3493	0.0351 ± 0.000717	–
[4], x1 = 0.4144	0.0363 ± 0.000956	–
[4], x1 = 0.4736	0.0375 ± 0.000956	–
[4], x1 = 0.5198	0.0368 ± 0.000956	–
[4], x1 = 0.561	0.0361 ± 0.000956	–
[4], x1 = 0.6071	0.0347 ± 0.000717	–
[4], x1 = 0.6645	0.0318 ± 0.000717	–
[4], x1 = 0.7376	0.0272 ± 0.000717	–
[4], x1 = 0.8193	0.021 ± 0.000478	–
[4], x1 = 0.8904	0.0139 ± 0.000478	–
[4], x1 = 0.9529	0.00717 ± 0.000239	–
